# Test results from PMC12515225, “Targeting neuroblastoma with hydroxamic acid based HDAC1 and HDAC2 inhibitors: Insights from in vitro and in vivo studies” (Investigational New Drugs, 2025).
# How the values were obtained:
# [1] = biological target: HDAC2 (Homo sapiens, UniProt Q92769); assay: fluorogenic HDAC activity assay with HDAC2 protein (BPS […]), Boc-Lys(Ac)-AMC substrate; format: biochemical
# [2] = biological target: HDAC1 (Homo sapiens, UniProt Q13547); assay: fluorogenic HDAC activity assay with HDAC1 protein (BPS […]), Boc-Lys(Ac)-AMC substrate; format: biochemical
# Sequence of HDAC1 (Q13547 whole entry): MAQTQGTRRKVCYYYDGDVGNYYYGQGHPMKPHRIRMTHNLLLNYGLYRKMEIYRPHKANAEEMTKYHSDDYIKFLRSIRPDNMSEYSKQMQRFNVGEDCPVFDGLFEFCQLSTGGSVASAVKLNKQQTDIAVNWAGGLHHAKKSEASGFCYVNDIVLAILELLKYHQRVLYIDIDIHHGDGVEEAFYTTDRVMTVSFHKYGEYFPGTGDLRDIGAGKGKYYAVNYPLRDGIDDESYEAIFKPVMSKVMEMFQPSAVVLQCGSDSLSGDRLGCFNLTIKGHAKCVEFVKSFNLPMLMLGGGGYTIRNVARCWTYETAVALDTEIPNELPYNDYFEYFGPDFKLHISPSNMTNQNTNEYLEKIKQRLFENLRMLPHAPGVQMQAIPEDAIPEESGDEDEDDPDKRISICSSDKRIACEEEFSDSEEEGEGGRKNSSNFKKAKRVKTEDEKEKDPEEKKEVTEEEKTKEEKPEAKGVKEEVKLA
# Sequence of HDAC2 (Q92769 whole entry): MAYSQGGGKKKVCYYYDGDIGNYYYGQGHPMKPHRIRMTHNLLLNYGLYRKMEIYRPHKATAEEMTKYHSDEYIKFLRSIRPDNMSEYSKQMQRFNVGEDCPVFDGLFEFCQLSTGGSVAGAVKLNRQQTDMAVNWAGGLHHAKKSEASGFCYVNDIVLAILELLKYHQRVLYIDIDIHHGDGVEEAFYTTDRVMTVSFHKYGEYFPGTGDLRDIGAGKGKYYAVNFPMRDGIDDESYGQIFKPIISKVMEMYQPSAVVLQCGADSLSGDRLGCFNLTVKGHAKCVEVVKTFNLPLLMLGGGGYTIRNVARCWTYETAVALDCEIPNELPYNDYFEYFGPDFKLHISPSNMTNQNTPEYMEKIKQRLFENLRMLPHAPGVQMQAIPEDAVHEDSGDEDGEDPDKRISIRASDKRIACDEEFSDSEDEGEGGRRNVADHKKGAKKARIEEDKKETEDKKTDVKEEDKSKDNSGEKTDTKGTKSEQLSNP
IC50 [1] [nM],IC50 [2] [nM],Compound
1940,440,"O=C(CCCCCCC(=O)Nc1cccc(-c2ccccn2)n1)NO [3B, N^1-([2,2'-bipyridin]-6-yl)-N^8-hydroxyoctanediamide]"
890,–,"O=C(NO)c1cccc(-c2ccccn2)n1 [3A, N-hydroxy[2,2'-bipyridine]-6-carboxamide]"
